# Data published in patent publication US11219621B2, “Methods for treating immunodeficiency disease” (X4 Pharmaceuticals, Inc., priority 2015, dated 2022).
# How the values were obtained:
# [1] = tested on: granulocyte-macrophage (CFU-GM), erythroid (BFU-E) and multipotential (CFU-GEMM) progenitor cells; assay: Progenitor/stem cell mobilization in mice after single subcutaneous injection; type: in vivo, C3H/HeJ mice; conditions: for BFU (BFU-E), Mean / GEMM (CFU-GEMM), Mean / GM (CFU-GM), Mean: progenitor cells per mL of blood
# Protocol: All experiments were performed in […] mice. […] The progenitors were stimulated to form colonies in vitro with the combination of 1 U/mL rhu EPO, 50 ng/mL rmu SLF, 5% vol/vol pokeweed mitogen mouse spleen cell conditioned medium (PWMSCM), and 0.1 mM hemin. Plates were scored 7 days after incubation at 37° C., 5% CO2, lowered […] and in a humidified chamber.
# In the first experiment (data shown in Table 6), mice received a dose of 5 mg/kg- and the number of progenitors in the circulating blood was measured at various time points (0.25, 0.5, 1, 2, 6 and 24 hours).
# CCR1 = biological target: T1, CCR1 (Homo sapiens, UniProt P32246); conditions: cited from earlier work
# T1 construct: expressed in transfected cells; host or cells: HEK293F
# T1 sequence (P32246 1-355): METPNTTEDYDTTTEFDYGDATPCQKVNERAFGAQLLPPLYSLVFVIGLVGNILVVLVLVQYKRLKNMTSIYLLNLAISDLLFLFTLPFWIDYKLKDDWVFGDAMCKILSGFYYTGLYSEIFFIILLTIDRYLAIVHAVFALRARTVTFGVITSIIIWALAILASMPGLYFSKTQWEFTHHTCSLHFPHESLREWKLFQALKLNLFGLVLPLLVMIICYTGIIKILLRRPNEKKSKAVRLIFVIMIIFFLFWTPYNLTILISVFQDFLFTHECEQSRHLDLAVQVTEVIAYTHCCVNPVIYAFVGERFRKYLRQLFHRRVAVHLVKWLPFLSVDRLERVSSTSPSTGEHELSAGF
# CXCR3 = biological target: T2, CXCR3 (Homo sapiens, UniProt P49682); conditions: cited from earlier work
# T2 construct: expressed in transfected cells
# T2 sequence (P49682 1-368): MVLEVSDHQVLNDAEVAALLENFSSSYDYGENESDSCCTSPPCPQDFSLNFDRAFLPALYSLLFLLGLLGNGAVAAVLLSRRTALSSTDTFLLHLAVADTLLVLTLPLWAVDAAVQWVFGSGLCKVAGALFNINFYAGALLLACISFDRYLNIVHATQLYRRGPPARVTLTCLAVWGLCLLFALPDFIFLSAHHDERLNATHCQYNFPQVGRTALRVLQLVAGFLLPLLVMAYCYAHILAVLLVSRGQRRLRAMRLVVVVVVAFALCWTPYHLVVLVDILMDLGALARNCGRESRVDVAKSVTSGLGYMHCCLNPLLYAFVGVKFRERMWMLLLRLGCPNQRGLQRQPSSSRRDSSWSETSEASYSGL
# CXCR7 = biological target: T3, CXCR7 (Homo sapiens, UniProt P25106); design: Inhibition of SDF-1α binding to CXCR7: dose or concentration left out as unconfirmed; conditions: cited from earlier work
# T3 construct: expressed in transfected cells
# T3 sequence (P25106 whole entry): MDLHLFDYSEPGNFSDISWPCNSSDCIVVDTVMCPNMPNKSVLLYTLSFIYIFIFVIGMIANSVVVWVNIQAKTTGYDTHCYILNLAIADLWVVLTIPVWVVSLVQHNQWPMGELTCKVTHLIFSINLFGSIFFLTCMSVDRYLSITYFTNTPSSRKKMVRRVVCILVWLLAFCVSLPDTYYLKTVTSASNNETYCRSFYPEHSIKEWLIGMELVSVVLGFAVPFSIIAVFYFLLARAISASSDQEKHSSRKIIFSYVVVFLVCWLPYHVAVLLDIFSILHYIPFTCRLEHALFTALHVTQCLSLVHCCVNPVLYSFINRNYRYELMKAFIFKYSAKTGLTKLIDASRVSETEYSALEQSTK
# CCR4 = biological target: T4, CCR4 (Homo sapiens, UniProt P51679); conditions: cited from earlier work
# T4 construct: expressed in transfected cells
# T4 sequence (P51679 1-360): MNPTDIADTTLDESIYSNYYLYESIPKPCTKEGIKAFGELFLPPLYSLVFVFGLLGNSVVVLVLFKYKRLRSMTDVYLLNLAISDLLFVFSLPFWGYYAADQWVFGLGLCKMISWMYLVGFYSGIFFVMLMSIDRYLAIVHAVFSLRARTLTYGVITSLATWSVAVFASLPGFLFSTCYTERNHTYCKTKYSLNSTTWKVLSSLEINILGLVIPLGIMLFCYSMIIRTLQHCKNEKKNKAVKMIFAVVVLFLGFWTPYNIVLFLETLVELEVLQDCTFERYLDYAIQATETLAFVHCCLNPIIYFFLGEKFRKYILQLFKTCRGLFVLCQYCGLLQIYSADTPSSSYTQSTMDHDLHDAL
# CCR5 = biological target: T5, CCR5 (Homo sapiens, UniProt P51681); conditions: cited from earlier work
# T5 construct: expressed in transfected cells
# T5 sequence (P51681 whole entry): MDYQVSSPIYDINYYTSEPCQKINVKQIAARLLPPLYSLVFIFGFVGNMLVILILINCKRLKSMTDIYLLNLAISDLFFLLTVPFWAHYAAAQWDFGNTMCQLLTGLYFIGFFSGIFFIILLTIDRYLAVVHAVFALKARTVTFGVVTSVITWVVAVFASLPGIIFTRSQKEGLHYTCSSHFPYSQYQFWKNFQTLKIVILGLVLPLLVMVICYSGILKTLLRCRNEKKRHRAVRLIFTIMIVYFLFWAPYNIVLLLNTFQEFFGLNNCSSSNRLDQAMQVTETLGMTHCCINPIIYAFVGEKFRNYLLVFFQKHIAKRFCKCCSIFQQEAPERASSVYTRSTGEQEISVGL
# [2] = Table 6, 5 mg/kg s.c., @ - 2′ (2 h)
# [3] = Table 6, 5 mg/kg s.c., @ - 6′ (6 h)
# [4] = Table 6, 5 mg/kg s.c., @ - 15″ ([…])
# [5] = Table 6, 5 mg/kg s.c., @ - 24′ (24 h)
# [6] = Table 6, 5 mg/kg s.c., @ - 30″ (0.5 h)
# [7] = Table 6, 5 mg/kg s.c., @ - 60″ (1 h)
# [8] = Table 7, 1 hour post-injection, 1.5 mg/kg s.c.
# [9] = Table 7, 1 hour post-injection, 5 mg/kg s.c.
# [10] = Table 7, 1 hour post-injection, 10 mg/kg s.c.
# [11] = Table 7, 1 hour post-injection, 20 mg/kg s.c.
# [12] = Table 8, 5 mg/kg s.c., @ - 2′ (2 h)
# [13] = Table 8, 5 mg/kg s.c., @ - 15″ ([…])
# [14] = Table 8, 5 mg/kg s.c., @ - 30″ (0.5 h)
# [15] = Table 8, 5 mg/kg s.c., @ - 60″ (1 h)
# [16] = time course, 5 mg/kg s.c., 30-60 min.
smiles,measurement,setting,value
NCCCCN(Cc1nc2ccccc2[nH]1)[C@H]1CCCc2cccnc21 [X4P-001],"BFU (BFU-E), Mean",[1]; [2],165.3
same,"GEMM (CFU-GEMM), Mean",[1]; [2],68.9
same,"GM (CFU-GM), Mean",[1]; [2],897.5
same,"BFU (BFU-E), Mean",[1]; [3],99.9
same,"GEMM (CFU-GEMM), Mean",[1]; [3],37.6
same,"GM (CFU-GM), Mean",[1]; [3],387.5
same,"BFU (BFU-E), Mean",[1]; [4],148.8
same,"GEMM (CFU-GEMM), Mean",[1]; [4],65.6
same,"GM (CFU-GM), Mean",[1]; [4],785.1
same,"BFU (BFU-E), Mean",[1]; [5],84.6
same,"GEMM (CFU-GEMM), Mean",[1]; [5],37.7
same,"GM (CFU-GM), Mean",[1]; [5],386.3
same,"BFU (BFU-E), Mean",[1]; [6],230.4
same,"GEMM (CFU-GEMM), Mean",[1]; [6],99.6
same,"GM (CFU-GM), Mean",[1]; [6],1273.8
same,"BFU (BFU-E), Mean",[1]; [7],235.1
same,"GEMM (CFU-GEMM), Mean",[1]; [7],103.1
same,"GM (CFU-GM), Mean",[1]; [7],866.0
same,"Nucleated Cellularity PBL-LD, Mean","[1]; Table 6 time course, 5 mg/kg s.c., @ - 2′ (2 h)",8.29e+06 mL⁻¹
same,"Nucleated Cellularity PBL-LD, Mean","[1]; Table 6 time course, 5 mg/kg s.c., @ - 6′ (6 h)",5.66e+06 mL⁻¹
same,"Nucleated Cellularity PBL-LD, Mean","[1]; Table 6 time course, 5 mg/kg s.c., @ - 15″ ([…])",5.1e+06 mL⁻¹
same,"Nucleated Cellularity PBL-LD, Mean","[1]; Table 6 time course, 5 mg/kg s.c., @ - 24′ (24 h)",4.31e+06 mL⁻¹
same,"Nucleated Cellularity PBL-LD, Mean","[1]; Table 6 time course, 5 mg/kg s.c., @ - 30″ (0.5 h)",6.14e+06 mL⁻¹
same,"Nucleated Cellularity PBL-LD, Mean","[1]; Table 6 time course, 5 mg/kg s.c., @ - 60″ (1 h)",6.92e+06 mL⁻¹
same,"BFU (BFU-E), Mean",[1]; [8],143.8
same,"GM (CFU-GM), Mean",[1]; [8],428.0
same,"BFU (BFU-E), Mean",[1]; [9],181.6
same,"GEMM (CFU-GEMM), Mean",[1]; [9],141.0
same,"GM (CFU-GM), Mean",[1]; [9],1119.8
same,"GEMM (CFU-GEMM), Mean",[1]; [10],224.4
same,"GM (CFU-GM), Mean",[1]; [10],1444.2
same,"BFU (BFU-E), Mean",[1]; [11],261.4
same,"GEMM (CFU-GEMM), Mean",[1]; [11],145.0
same,"GM (CFU-GM), Mean",[1]; [11],1314.2
same,"Nucleated Cellularity PBL-LD, Mean","[1]; Table 7 dose response, 1 hour post-injection, 1.5 mg/kg s.c.",6.94e+06 mL⁻¹
same,"Nucleated Cellularity PBL-LD, Mean","[1]; Table 7 dose response, 1 hour post-injection, 5 mg/kg s.c.",7.65e+06 mL⁻¹
same,"Nucleated Cellularity PBL-LD, Mean","[1]; Table 7 dose response, 1 hour post-injection, 10 mg/kg s.c.",9.94e+06 mL⁻¹
same,"BFU (BFU-E), Mean",[1]; [12],108.5
same,"GEMM (CFU-GEMM), Mean",[1]; [12],62.4
same,"GM (CFU-GM), Mean",[1]; [12],619.6
same,"BFU (BFU-E), Mean",[1]; [13],188.9
same,"GEMM (CFU-GEMM), Mean",[1]; [13],93.8
same,"GM (CFU-GM), Mean",[1]; [13],588.3
same,"GEMM (CFU-GEMM), Mean",[1]; [14],79.0
same,"GM (CFU-GM), Mean",[1]; [14],705.9
same,"GEMM (CFU-GEMM), Mean",[1]; [15],102.2
same,"GM (CFU-GM), Mean",[1]; [15],761.4
same,"Nucleated Cellularity PBL-LD, Mean","[1]; Table 8 comparison, 5 mg/kg s.c., @ - 2′ (2 h)",9.71e+06 mL⁻¹
same,"Nucleated Cellularity PBL-LD, Mean","[1]; Table 8 comparison, 5 mg/kg s.c., @ - 15″ ([…])",8.04e+06 mL⁻¹
same,"Nucleated Cellularity PBL-LD, Mean","[1]; Table 8 comparison, 5 mg/kg s.c., @ - 30″ (0.5 h)",8.28e+06 mL⁻¹
same,"Nucleated Cellularity PBL-LD, Mean","[1]; Table 8 comparison, 5 mg/kg s.c., @ - 60″ (1 h)",7.34e+06 mL⁻¹
same,Peak increase of BFU-E over control (saline injection),[1]; [16],2.49-2.54 fold
same,Peak increase of CFU-GEMM over control (saline injection),[1]; [16],2.58-2.67 fold
same,Peak increase of CFU-GM over control (saline injection),"[1]; time course, 5 mg/kg s.c., 30 min.",4.21 fold
same,Time of peak of nucleated cell mobilization,"[1]; time course, 5 mg/kg s.c., approximately",1-2 hours post-injection
same,Number of circulating progenitors,[1]; up to a dose of 5-10 mg/kg s.c.,dose-dependently increased
same,IC50,"CCR1; CCR1, HEK293F-CCR1, MIP-1α/CCL3, read-out: IC50 AMD11070",> 50 µM
same,Inhibitory effect on MIP1α mediated calcium flux (CCR1),CCR1,little or no inhibitory effect
same,IC50,"CXCR3; CXCR3, HEK293F-CXCR3-Gαq15, IP-10/CXCL10, read-out: IC50 AMD11070",> 50 µM
same,Inhibitory effect on IP10 mediated calcium flux (CXCR3),CXCR3,little or no inhibitory effect
same,IC50,"CXCR7; CXCR7, Cf2Th.CXCR7, SDF-1α/CXCL12, ligand binding, read-out: IC50 AMD11070",> 10 µM
same,Inhibitory effect on SDF-1α binding to CXCR7,CXCR7,little or no inhibitory effect
same,Inhibition of SDF-1α binding to CXCR7,CXCR7; the maximum concentration tested,did not inhibit
same,IC50,"CCR4; CCR4, HEK293F-CCR4-Gαq15, TARC/CCL17, read-out: IC50 AMD11070",> 50 µM
same,Inhibitory effect on TARC mediated calcium flux (CCR4),CCR4,little or no inhibitory effect
same,IC50,"CCR5; CCR5, HEK293F-CCR5, RANTES/CCL5, read-out: IC50 AMD11070",> 50 µM
same,Inhibitory effect on RANTES mediated calcium flux (CCR5),CCR5,little or no inhibitory effect
